SMILES strings stand for the structures. “And” between values parts separate entries of the source, which are not always exact repeats. Equal values may be shown once.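 How tested: cells in 96-well plates exposed to compound for 48 hours at five concentrations. At the GI50, growth is halved. At the TGI there is no net growth.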

The text below walks through data of PubChem BioAssay (NCI).

Some test systems named below: 786-0 renal; MCF7 breast; SF-295 CNS; A498 renal; HL-60(TB) leukemia; A549 NSCLC; HCC-2998 colon; HCT-15 colon; RXF 393 renal; SNB-19 CNS.
Assay in all cases: NCI tumour cell line growth inhibition, 48 h

As for `Cc1ccc(-c2nc(N3CCNCC3)c3oc(-c4ccccc4)nc3n2)cc1`, the GI50 is 1.77 µM with 786-0 renal; 1.85 µM in the experiment on MCF7 breast; 1.69 µM in the experiment with SF-295 CNS; 14.5 µM in the experiment with A498 renal; 1.43 µM in the experiment with HL-60(TB) leukemia; 1.66 µM with A549 NSCLC. For the same compound, the GI50 was over 100 µM in the experiment with HCC-2998 colon, 1.69 µM in the experiment with HCT-15 colon, 1.7 µM in the experiment on RXF 393 renal and 1.85 µM in the experiment with SNB-19 CNS. Also, the TGI with 786-0 renal is 3.25 µM; in the experiment with MCF7 breast, 3.75 µM; in the experiment on SF-295 CNS, 3.16 µM; with A498 renal, 28.8 µM; with HL-60(TB) leukemia it was 3.09 µM; in the experiment on A549 NSCLC, 3.13 µM. The TGI was over 100 µM in the experiment with HCC-2998 colon, 3.2 µM in the experiment on HCT-15 colon, 3.19 µM with RXF 393 renal and 3.29 µM in the experiment on SNB-19 CNS.
On to `CC(C)(C)NC(=O)[C@H]1CC[C@H]2[C@@H]3CC[C@H]4NC(=O)C=C[C@]4(C)[C@H]3CC[C@]12C`, for which the GI50 with 786-0 renal is over 100 µM; in the experiment with MCF7 breast it was over 100 µM; with SF-295 CNS it was over 100 µM; in the experiment on A498 renal, 54.2 µM; with HL-60(TB) leukemia it was 41.6 µM and > 100 µM; in the experiment on A549 NSCLC, over 100 µM. Besides, the GI50 in the experiment on HCC-2998 colon, in the experiment on HCT-15 colon, in the experiment on RXF 393 renal and in the experiment with SNB-19 CNS was over 100 µM each time. Further, the TGI in the experiment with 786-0 renal, in the experiment with MCF7 breast, with SF-295 CNS, in the experiment on A498 renal, in the experiment with HL-60(TB) leukemia and with A549 NSCLC was over 100 µM in each case. For the same compound, the TGI with HCC-2998 colon, in the experiment with HCT-15 colon, in the experiment with RXF 393 renal and with SNB-19 CNS was over 100 µM throughout.
Regarding `Cc1ccc(/C=C/c2c(C(=O)/C=C/c3ccc(Cl)cc3)c(C)nc3ccccc23)cc1`, the GI50 in the experiment on 786-0 renal was 1.6 µM; with MCF7 breast, 1.58 µM; in the experiment with SF-295 CNS it was 1.74 µM; with A498 renal it was 1.77 µM; in the experiment with HL-60(TB) leukemia, 2.12 µM; in the experiment on A549 NSCLC it was 2.45 µM. The GI50 in the experiment with HCC-2998 colon was 1.49 µM; in the experiment with HCT-15 colon, 1.45 µM; in the experiment with RXF 393 renal it was 1.79 µM; with SNB-19 CNS, 1.75 µM. Moreover, the TGI stood at 3.2 µM with 786-0 renal; 4.95 µM with MCF7 breast; 3.23 µM in the experiment on SF-295 CNS; 3.28 µM with A498 renal; 5.76 µM in the experiment on HL-60(TB) leukemia; 6.85 µM in the experiment on A549 NSCLC. Moreover, the TGI with HCC-2998 colon is 2.96 µM; in the experiment on HCT-15 colon, 3.97 µM; with RXF 393 renal it was 3.45 µM; in the experiment with SNB-19 CNS, 3.28 µM.
Take `COc1cccc2nc3ccccc3nc12`: the TGI in the experiment with 786-0 renal, with MCF7 breast, with SF-295 CNS, in the experiment with A498 renal, in the experiment with HL-60(TB) leukemia and in the experiment with A549 NSCLC was over 100 µM in each case. Besides, the TGI in the experiment on HCC-2998 colon, in the experiment on HCT-15 colon, in the experiment on RXF 393 renal and with SNB-19 CNS was over 100 µM in each case.
Consider `CN1CCN(c2ccc(NC(=O)c3cncnc3Nc3ccc(OCc4cccc(F)c4)c(Cl)c3)cc2)CC1`, for which the GI50 is 0.992 µM in the experiment with 786-0 renal; 0.993 µM with MCF7 breast; 6.51 µM with SF-295 CNS; 1.55 µM in the experiment on A498 renal; 1.3 µM in the experiment on HL-60(TB) leukemia; 1.51 µM in the experiment with A549 NSCLC. In addition, the GI50 was 1.13 µM in the experiment with HCC-2998 colon, 0.889 µM with HCT-15 colon, 0.956 µM in the experiment with RXF 393 renal and 2.81 µM in the experiment with SNB-19 CNS. In addition, the TGI was determined as 2.03 µM with 786-0 renal; 2.4 µM in the experiment with MCF7 breast; 16.5 µM in the experiment on SF-295 CNS; 24.7 µM with A498 renal; 3.44 µM in the experiment on HL-60(TB) leukemia; 5.05 µM in the experiment with A549 NSCLC. For the same compound, the TGI worked out at 2.7 µM in the experiment with HCC-2998 colon, 1.91 µM with HCT-15 colon, 1.9 µM in the experiment with RXF 393 renal and 18.7 µM with SNB-19 CNS.
As for `O=C(CCl)Nc1cc(Cl)c(Cl)cc1Cl`, the TGI with 786-0 renal was 2.87 µM; in the experiment with MCF7 breast, 3.6 µM; with SF-295 CNS, over 10 µM; with A498 renal, over 10 µM; in the experiment with HL-60(TB) leukemia, 7.74 µM; in the experiment on A549 NSCLC, 4.56 µM. In addition, the TGI in the experiment with HCC-2998 colon is over 10 µM; with HCT-15 colon, 4.3 µM; in the experiment on RXF 393 renal it was 4.58 µM; in the experiment on SNB-19 CNS, 4.43 µM.
Take `O=C(/C=C/C(Cl)(Cl)Cl)Nc1ccc(Cl)cc1`: the TGI with 786-0 renal was 2.96 µM; in the experiment on MCF7 breast, 34.3 µM; in the experiment on SF-295 CNS it was 28.8 µM; with A498 renal it was 28.8 µM; in the experiment on HL-60(TB) leukemia, 2.03 µM; in the experiment with A549 NSCLC it was 8.98 µM. The TGI with HCC-2998 colon was found to be 14.5 µM; with HCT-15 colon, 11.4 µM; in the experiment on RXF 393 renal, 6.62 µM; in the experiment with SNB-19 CNS, 32 µM.
In the case of `CCCCCC[C@@H](C)Nc1nc2ccccc2c2occc12`, the GI50 in the experiment on 786-0 renal is 14.3 µM; in the experiment with MCF7 breast, 10.5 µM; in the experiment with SF-295 CNS, 1.99 µM; with A498 renal, 18.6 µM; in the experiment with HL-60(TB) leukemia it was 22.4 µM; with A549 NSCLC, 19.4 µM. Further, the GI50 was 9.35 µM with HCC-2998 colon, 10.1 µM with HCT-15 colon, 13.9 µM in the experiment with RXF 393 renal and 17.7 µM in the experiment with SNB-19 CNS. Also, the TGI is 27.8 µM in the experiment on 786-0 renal; over 100 µM in the experiment with MCF7 breast; 19.5 µM in the experiment with SF-295 CNS; 35.1 µM in the experiment on A498 renal; 62.9 µM in the experiment on HL-60(TB) leukemia; 78.2 µM with A549 NSCLC. Moreover, the TGI was determined as 21.5 µM in the experiment on HCC-2998 colon, 21.6 µM with HCT-15 colon, 34.4 µM with RXF 393 renal and 50.1 µM in the experiment with SNB-19 CNS.
In the case of `CCOC(=O)c1c(NC(=O)c2ccccc2)sc2c3c(ccc12)OCN(C)C3`, the GI50 was 1.79 µM in the experiment with 786-0 renal; 1.59 µM with MCF7 breast; 1.74 µM in the experiment on SF-295 CNS; 1.65 µM with A498 renal; 1.81 µM in the experiment on HL-60(TB) leukemia; 1.73 µM in the experiment on A549 NSCLC. Moreover, the GI50 in the experiment with HCC-2998 colon is 1.03 µM; in the experiment on HCT-15 colon it was 1.2 µM; in the experiment with RXF 393 renal, 1.57 µM; in the experiment on SNB-19 CNS, 1.56 µM. Moreover, the TGI in the experiment with 786-0 renal was found to be 3.4 µM; with MCF7 breast it was 3.17 µM; with SF-295 CNS it was 3.23 µM; in the experiment with A498 renal it was 3.21 µM; in the experiment on HL-60(TB) leukemia, 3.88 µM; in the experiment with A549 NSCLC, 3.56 µM. For the same compound, the TGI with HCC-2998 colon was found to be 2.35 µM; with HCT-15 colon, 2.51 µM; in the experiment on RXF 393 renal, 3.2 µM; in the experiment with SNB-19 CNS it was 3.1 µM.
Consider `COc1ccc(C(=O)O[C@H]2[C@H](O[C@H]3[C@@H](O)COC(O[C@H]4C[C@H]5[C@@H]6CC=C7C[C@@H](O)CC[C@]7(C)[C@H]6CC[C@]5(C)[C@H]4[C@H](C)C(=O)CCC(C)C)[C@@H]3OC(C)=O)OC[C@@H](O)[C@@H]2O)c(C)c1` (stereo not given in full), for which the GI50 is under 0.01 µM in the experiment with 786-0 renal; under 0.01 µM with MCF7 breast; under 0.01 µM with SF-295 CNS; under 0.01 µM in the experiment on A498 renal; 0.0133 µM with HL-60(TB) leukemia; under 0.01 µM in the experiment with A549 NSCLC. Moreover, the GI50 with HCC-2998 colon was 4.1 µM; in the experiment with HCT-15 colon, 0.0332 µM; in the experiment on RXF 393 renal, under 0.01 µM; in the experiment with SNB-19 CNS it was under 0.01 µM. Also, the TGI with 786-0 renal is 7.38 µM; with MCF7 breast, 11 µM; in the experiment on SF-295 CNS, under 0.01 µM; with A498 renal, under 0.01 µM; with HL-60(TB) leukemia it was 28.2 µM; with A549 NSCLC, over 100 µM. Further, the TGI in the experiment with HCC-2998 colon is 25.2 µM; with HCT-15 colon, 2.05 µM; in the experiment on RXF 393 renal, under 0.01 µM; with SNB-19 CNS, 10.3 µM.
